Laboratory results: patent US20230085307A1, “PYRIDAZINONE COMPOUND AND HERBICIDE” (NISSAN CHEMICAL CORPORATION, priority 2019, published 2023)

Legend:
late watergrass = assay: Test Example 2: herbicidal activity, application during weed generation under submerged conditions (Table 17, symbol A); assay type: in vivo, late watergrass (Echinochloa oryzicola); conditions: AAH 320 g/ha; application during weed generation, submerged conditions
Summary of the method: (§1)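 Mixed weed seedlings in alluvial soil under a 4 cm water layer, greenhouse-grown at 25–30° C. Compound given as a diluted emulsion into the floodwater at the 1–2 leaf stage; response graded after three weeks.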

Japanese bulrush = assay: Test Example 2: herbicidal activity, application during weed generation under submerged conditions (Table 17, symbol B); assay type: in vivo, Japanese bulrush (Schoenoplectus juncoides); conditions: AAH 320 g/ha; application during weed generation, submerged conditions
Summary of the method: as §1

oval-leafed pondweed = assay: Test Example 2: herbicidal activity, application during weed generation under submerged conditions (Table 17, symbol C); assay type: in vivo, oval-leafed pondweed (Monochoria vaginalis); conditions: AAH 320 g/ha; application during weed generation, submerged conditions
Summary of the method: as §1

barnyard grass [1] = assay: Test Example 3: herbicidal effect by foliage application, Wagner pot (Table 18, symbol H); assay type: in vivo, barnyard grass (Echinochloa crus-galli); conditions: amount of applied herbicide 320 g/ha
Summary of the method: (§2)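 Plants were sown in alluvial soil held under 0.1–0.5 cm standing water and grown 14 days in a greenhouse at 25–30 °C. An emulsifiable formulation, water-diluted to the set dose, was then sprayed onto the foliage, and effects were scored three weeks later using previously defined criteria.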

Chinese sprangletop = assay: Test Example 3: herbicidal effect by foliage application, Wagner pot (Table 18, symbol D); assay type: in vivo, chinese sprangletop (Leptochloa chinensis); conditions: amount of applied herbicide 320 g/ha
Summary of the method: as §2

rice flat sedge = assay: Test Example 3: herbicidal effect by foliage application, Wagner pot (Table 18, symbol E); assay type: in vivo, rice flat sedge (Cyperus iria); conditions: amount of applied herbicide 320 g/ha
Summary of the method: as §2

southern crabgrass [2] = assay: Test Example 4: herbicidal effect by soil treatment (Table 19, symbol F); assay type: in vivo, southern crabgrass (Digitaria ciliaris); conditions: amount of applied herbicide 320 g/ha
Summary of the method: (§3)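 Seeds were sown in sterilized diluvial soil and covered with about 1.5 cm of soil. An emulsion formulation diluted with water to a predetermined herbicide amount was sprayed evenly onto the soil surface. Plants grew in a greenhouse at 25° C. to 30° C., and the effect was scored three weeks after application using criteria from an earlier test.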

green foxtail [3] = assay: Test Example 4: herbicidal effect by soil treatment (Table 19, symbol G); assay type: in vivo, green foxtail (Setaria viridis); conditions: amount of applied herbicide 320 g/ha
Summary of the method: as §3

barnyard grass [4] = assay: Test Example 4: herbicidal effect by soil treatment (Table 19, symbol H); assay type: in vivo, barnyard grass (Echinochloa crus-galli); conditions: amount of applied herbicide 320 g/ha
Summary of the method: as §3

wild oat [5] = assay: Test Example 4: herbicidal effect by soil treatment (Table 19, symbol I); assay type: in vivo, wild oat (Avena fatua); conditions: amount of applied herbicide 320 g/ha
Summary of the method: as §3

blackgrass [6] = assay: Test Example 4: herbicidal effect by soil treatment (Table 19, symbol J); assay type: in vivo, blackgrass (Alopecurus myosuroides); conditions: amount of applied herbicide 320 g/ha
Summary of the method: as §3

Italian ryegrass [7] = assay: Test Example 4: herbicidal effect by soil treatment (Table 19, symbol K); assay type: in vivo, Italian ryegrass (Lolium multiflorum); conditions: amount of applied herbicide 320 g/ha
Summary of the method: as §3

windgrass [8] = assay: Test Example 4: herbicidal effect by soil treatment (Table 19, symbol L); assay type: in vivo, windgrass (Apera spica-venti); conditions: amount of applied herbicide 320 g/ha
Summary of the method: as §3

velvetleaf [9] = assay: Test Example 4: herbicidal effect by soil treatment (Table 19, symbol M); assay type: in vivo, velvetleaf (Abutilon theophrasti); conditions: amount of applied herbicide 320 g/ha
Summary of the method: as §3

redroot pigweed [10] = assay: Test Example 4: herbicidal effect by soil treatment (Table 19, symbol N); assay type: in vivo, redroot pigweed (Amaranthus retroflexus); conditions: amount of applied herbicide 320 g/ha
Summary of the method: as §3

lambsquarters [11] = assay: Test Example 4: herbicidal effect by soil treatment (Table 19, symbol O); assay type: in vivo, lambsquarters (Chenopodium album); conditions: amount of applied herbicide 320 g/ha
Summary of the method: as §3

chickweed [12] = assay: Test Example 4: herbicidal effect by soil treatment (Table 19, symbol P); assay type: in vivo, common chickweed (Stellaria media); conditions: amount of applied herbicide 320 g/ha
Summary of the method: as §3

persian speedwell [13] = assay: Test Example 4: herbicidal effect by soil treatment (Table 19, symbol R); assay type: in vivo, Persian speedwell (Veronica persica); conditions: amount of applied herbicide 320 g/ha
Summary of the method: as §3

southern crabgrass [14] = assay: Test Example 5: herbicidal effect by foliage application, plastic box (Table 20, symbol F); assay type: in vivo, southern crabgrass (Digitaria ciliaris); conditions: foliage application
Summary of the method: (§4)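 Plants sown in sterilized diluvial soil and grown 14 days in a greenhouse at 25° C to 30° C, then sprayed on the foliage with the compound's emulsion diluted in water to a predetermined herbicide amount. Injury to weeds and crops scored three weeks after application on a visual rating scale.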

green foxtail [15] = assay: Test Example 5: herbicidal effect by foliage application, plastic box (Table 20, symbol G); assay type: in vivo, green foxtail (Setaria viridis); conditions: foliage application
Summary of the method: as §4

barnyard grass [16] = assay: Test Example 5: herbicidal effect by foliage application, plastic box (Table 20, symbol H); assay type: in vivo, barnyard grass (Echinochloa crus-galli); conditions: foliage application
Summary of the method: as §4

wild oat [17] = assay: Test Example 5: herbicidal effect by foliage application, plastic box (Table 20, symbol I); assay type: in vivo, wild oat (Avena fatua); conditions: foliage application
Summary of the method: as §4

blackgrass [18] = assay: Test Example 5: herbicidal effect by foliage application, plastic box (Table 20, symbol J); assay type: in vivo, blackgrass (Alopecurus myosuroides); conditions: foliage application
Summary of the method: as §4

Italian ryegrass [19] = assay: Test Example 5: herbicidal effect by foliage application, plastic box (Table 20, symbol K); assay type: in vivo, Italian ryegrass (Lolium multiflorum); conditions: foliage application
Summary of the method: as §4

windgrass [20] = assay: Test Example 5: herbicidal effect by foliage application, plastic box (Table 20, symbol L); assay type: in vivo, windgrass (Apera spica-venti); conditions: foliage application
Summary of the method: as §4

velvetleaf [21] = assay: Test Example 5: herbicidal effect by foliage application, plastic box (Table 20, symbol M); assay type: in vivo, velvetleaf (Abutilon theophrasti); conditions: foliage application
Summary of the method: as §4

redroot pigweed [22] = assay: Test Example 5: herbicidal effect by foliage application, plastic box (Table 20, symbol N); assay type: in vivo, redroot pigweed (Amaranthus retroflexus); conditions: foliage application
Summary of the method: as §4

lambsquarters [23] = assay: Test Example 5: herbicidal effect by foliage application, plastic box (Table 20, symbol O); assay type: in vivo, lambsquarters (Chenopodium album); conditions: foliage application
Summary of the method: as §4

chickweed [24] = assay: Test Example 5: herbicidal effect by foliage application, plastic box (Table 20, symbol P); assay type: in vivo, common chickweed (Stellaria media); conditions: foliage application
Summary of the method: as §4

persian speedwell [25] = assay: Test Example 5: herbicidal effect by foliage application, plastic box (Table 20, symbol R); assay type: in vivo, Persian speedwell (Veronica persica); conditions: foliage application
Summary of the method: as §4

[26] = AAH 320 g/ha, evaluated three weeks after application
[27] = 320 g/ha, three weeks after application

SMILES: CCOC(=O)OC(C)Oc1c(C)nn(C)c(=O)c1-c1c(-c2ccc(OC(F)F)cc2)sc2ccc(F)cc12 (stereo not drawn) [2-308]
- herbicidal effect rating, A: late watergrass (late watergrass): 3 (Herbicidal rate of 40% or more and less than 70%)
- herbicidal effect rating, B: Japanese bulrush (Japanese bulrush): 0 (Herbicidal rate of 5% or less (almost no effect))
- herbicidal effect rating, C: oval-leafed pondweed (oval-leafed pondweed): 0 (Herbicidal rate of 5% or less (almost no effect))
- herbicidal effect on H: barnyard grass (barnyard grass [1]): 5 (Herbicidal rate of 90% or more (almost completely withered))
- herbicidal effect on D: Chinese sprangletop (Chinese sprangletop): 3 (Herbicidal rate of 40% or more and less than 70%)
- herbicidal effect on E: rice flat sedge (rice flat sedge): 4 (Herbicidal rate of 70% or more and less than 90%)
- herbicidal effect on F: southern crabgrass (southern crabgrass [2]): 0 (Herbicidal rate of 5% or less (almost no effect))
- herbicidal effect on G: green foxtail (green foxtail [3]): 0 (Herbicidal rate of 5% or less (almost no effect))
- herbicidal effect on H: barnyard grass (barnyard grass [4]): 0 (Herbicidal rate of 5% or less (almost no effect))
- herbicidal effect on I: wild oat (wild oat [5]): 0 (Herbicidal rate of 5% or less (almost no effect))
- herbicidal effect on J: blackgrass (blackgrass [6]): 0 (Herbicidal rate of 5% or less (almost no effect))
- herbicidal effect on K: Italian ryegrass (Italian ryegrass [7]): 0 (Herbicidal rate of 5% or less (almost no effect))
- herbicidal effect on L: windgrass (windgrass [8]): 0 (Herbicidal rate of 5% or less (almost no effect))
- herbicidal effect on M: velvetleaf (velvetleaf [9]): 0 (Herbicidal rate of 5% or less (almost no effect))
- herbicidal effect on N: redroot pigweed (redroot pigweed [10]): 0 (Herbicidal rate of 5% or less (almost no effect))
- herbicidal effect on O: lambsquarters (lambsquarters [11]): 0 (Herbicidal rate of 5% or less (almost no effect))
- herbicidal effect on P: chickweed (chickweed [12]): 0 (Herbicidal rate of 5% or less (almost no effect))
- herbicidal effect on R: persian speedwell (persian speedwell [13]): 5 (Herbicidal rate of 90% or more (almost completely withered))
- F: southern crabgrass, herbicidal effect (criteria 0-5) (southern crabgrass [14]; [26]): 1 (Herbicidal rate of 5% or more and less than 20%)
- G: green foxtail, herbicidal effect (criteria 0-5) (green foxtail [15]; [26]): 5 (Herbicidal rate of 90% or more (almost completely withered))
- H: barnyard grass, herbicidal effect (criteria 0-5) (barnyard grass [16]; [26]): 4 (Herbicidal rate of 70% or more and less than 90%)
- I: wild oat, herbicidal effect (criteria 0-5) (wild oat [17]; [26]): 0 (Herbicidal rate of 5% or less (almost no effect))
- J: blackgrass, herbicidal effect (criteria 0-5) (blackgrass [18]; [26]): 0 (Herbicidal rate of 5% or less (almost no effect))
- K: Italian ryegrass, herbicidal effect (criteria 0-5) (Italian ryegrass [19]; [26]): 0 (Herbicidal rate of 5% or less (almost no effect))
- L: windgrass, herbicidal effect (criteria 0-5) (windgrass [20]; [26]): 0 (Herbicidal rate of 5% or less (almost no effect))
- M: velvetleaf, herbicidal effect (criteria 0-5) (velvetleaf [21]; [26]): 5 (Herbicidal rate of 90% or more (almost completely withered))
- N: redroot pigweed, herbicidal effect (criteria 0-5) (redroot pigweed [22]; [26]): 4 (Herbicidal rate of 70% or more and less than 90%)
- O: lambsquarters, herbicidal effect (criteria 0-5) (lambsquarters [23]; [26]): 5 (Herbicidal rate of 90% or more (almost completely withered))
- P: chickweed, herbicidal effect (criteria 0-5) (chickweed [24]; [26]): 5 (Herbicidal rate of 90% or more (almost completely withered))
- R: persian speedwell, herbicidal effect (criteria 0-5) (persian speedwell [25]; [26]): 5 (Herbicidal rate of 90% or more (almost completely withered))

SMILES: CCc1nn(C)c(=O)c(-c2c(-c3ccc(F)cc3)sc3ccc(F)cc23)c1O [2-406]
- herbicidal effect rating, A: late watergrass (late watergrass): 2 (Herbicidal rate of 20% or more and less than 40%)
- herbicidal effect rating, B: Japanese bulrush (Japanese bulrush): 0 (Herbicidal rate of 5% or less (almost no effect))
- herbicidal effect rating, C: oval-leafed pondweed (oval-leafed pondweed): 0 (Herbicidal rate of 5% or less (almost no effect))
- herbicidal effect on H: barnyard grass (barnyard grass [1]): 4 (Herbicidal rate of 70% or more and less than 90%)
- herbicidal effect on D: Chinese sprangletop (Chinese sprangletop): 4 (Herbicidal rate of 70% or more and less than 90%)
- herbicidal effect on E: rice flat sedge (rice flat sedge): 5 (Herbicidal rate of 90% or more (almost completely withered))
- herbicidal effect, F: southern crabgrass (southern crabgrass [2]): 2 (Herbicidal rate of 20% or more and less than 40%)
- herbicidal effect, G: green foxtail (green foxtail [3]): 4 (Herbicidal rate of 70% or more and less than 90%)
- herbicidal effect, H: barnyard grass (barnyard grass [4]): 4 (Herbicidal rate of 70% or more and less than 90%)
- herbicidal effect, I: wild oat (wild oat [5]): 0 (Herbicidal rate of 5% or less (almost no effect))
- herbicidal effect, J: blackgrass (blackgrass [6]): 0 (Herbicidal rate of 5% or less (almost no effect))
- herbicidal effect, K: Italian ryegrass (Italian ryegrass [7]): 3 (Herbicidal rate of 40% or more and less than 70%)
- herbicidal effect, L: windgrass (windgrass [8]): 0 (Herbicidal rate of 5% or less (almost no effect))
- herbicidal effect, M: velvetleaf (velvetleaf [9]): 3 (Herbicidal rate of 40% or more and less than 70%)
- herbicidal effect, N: redroot pigweed (redroot pigweed [10]): 4 (Herbicidal rate of 70% or more and less than 90%)
- herbicidal effect, O: lambsquarters (lambsquarters [11]): 3 (Herbicidal rate of 40% or more and less than 70%)
- herbicidal effect, P: chickweed (chickweed [12]): 3 (Herbicidal rate of 40% or more and less than 70%)
- herbicidal effect, R: persian speedwell (persian speedwell [13]): 0 (Herbicidal rate of 5% or less (almost no effect))
- F: southern crabgrass, herbicidal effect grade (southern crabgrass [14]; [27]): 3 (Herbicidal rate of 40% or more and less than 70%)
- G: green foxtail, herbicidal effect grade (green foxtail [15]; [27]): 5 (Herbicidal rate of 90% or more (almost completely withered))
- H: barnyard grass, herbicidal effect grade (barnyard grass [16]; [27]): 4 (Herbicidal rate of 70% or more and less than 90%)
- I: wild oat, herbicidal effect grade (wild oat [17]; [27]): 0 (Herbicidal rate of 5% or less (almost no effect))
- J: blackgrass, herbicidal effect grade (blackgrass [18]; [27]): 3 (Herbicidal rate of 40% or more and less than 70%)
- K: Italian ryegrass, herbicidal effect grade (Italian ryegrass [19]; [27]): 4 (Herbicidal rate of 70% or more and less than 90%)
- L: windgrass, herbicidal effect grade (windgrass [20]; [27]): 4 (Herbicidal rate of 70% or more and less than 90%)
- M: velvetleaf, herbicidal effect grade (velvetleaf [21]; [27]): 5 (Herbicidal rate of 90% or more (almost completely withered))
- N: redroot pigweed, herbicidal effect grade (redroot pigweed [22]; [27]): 5 (Herbicidal rate of 90% or more (almost completely withered))
- O: lambsquarters, herbicidal effect grade (lambsquarters [23]; [27]): 4 (Herbicidal rate of 70% or more and less than 90%)
- P: chickweed, herbicidal effect grade (chickweed [24]; [27]): 5 (Herbicidal rate of 90% or more (almost completely withered))
- R: persian speedwell, herbicidal effect grade (persian speedwell [25]; [27]): 5 (Herbicidal rate of 90% or more (almost completely withered))
